Reference: publication PMC6152377, “Structure-Activity Relationships of Acyclic Selenopurine Nucleosides as Antiviral Agents” (Molecules : A Journal of Synthetic Chemistry and Natural …, 2017)
Read-outs that look alike come from different tables or passages of the source.

How the values were obtained:
[1] = tested on: HSV-2 (strain MS, VR-540); assay: CPE inhibition antiviral assay, HSV-2; assay type: cell-based; settings: Human alphaherpesvirus 2, 72 h, inhibition of virus-induced cytopathic effect by 50%, MTT readout, 3 days
Procedure: (§1) All the final compounds 3a–f and 4a–g were assayed for their antiviral activity against several herpes viruses such as HSV-1 (strain F, VR-733), HSV-2 (strain MS, VR-540), VZV (Ellen, VR-1367), and HCMV (Davis, VR-807). Cytotoxicity data were measured in HEL299 (CCL-137) cells as described previously. […] Antiviral activity was measured using a standard cytopathic (CPE) inhibition assay as described before. Briefly, Vero cells in stationary phase were infected with the virus at a multiplicity of infection of 2–4 CCID50 (50% cell culture inhibitory dose) per each well of 96-well plates. After 2 h of adsorption at 37 °C, the liquid was aspirated and 100 μL of Dulbeco’s modified eagle’s media (DMEM)/2% fetal bovine serum (FBS) containing a compound was applied to each well in duplicate for each concentration and further incubated for 3 days. Antiviral activity was measured by MTT assay and expressed as the EC50. Cytocidal assay was performed as a control experiment for the antiviral assay. It was carried out simultaneously with the antiviral assay described above using mock instead of virus for infection, and cell viability was measured by MTT assay. The concentration of the compound responsible for 50% reduction of cell growth was calculated and expressed as CC50.

[2] = tested on: VZV (Ellen, VR-1367); assay: CPE inhibition antiviral assay, VZV; assay type: cell-based, varicella-zoster virus (VZV); settings: Human alphaherpesvirus 3; inhibition of virus-induced cytopathic effect by 50%; strain Ellen; MTT readout
Procedure: as §1

[3] = tested on: HCMV (Davis, VR-807); assay: CPE inhibition antiviral assay, HCMV; assay type: cell-based, human cytomegalovirus (HCMV); settings: Human betaherpesvirus 5; inhibition of virus-induced cytopathic effect by 50%; strain Davis; MTT readout
Procedure: as §1

[4] = tested on: HSV-1 (strain F, VR-733); assay: CPE inhibition antiviral assay, HSV-1; assay type: cell-based, herpes simplex virus (HSV)-1; settings: Human alphaherpesvirus 1, 72 h, inhibition of virus-induced cytopathic effect by 50%, MTT readout, 3 days
Procedure: as §1

[5] = Cytotoxicity (cytocidal) assay, MTT; assay type: cell-based; settings: human, 50% reduction of cell viability, mock infection
Procedure: as §1

[6] = tested on: HCMV (Davis, VR-807); design: method as in PMID 20466277; settings: inhibition of virus-induced cytopathic effect by 50%; strain Davis; ref [11]; cited from earlier work
[7] = tested on: HEL299 (CCL-137) cells; settings: read-out: CC50 HEL299, 50% reduction of cell viability, ref [11]; cited from earlier work
[8] = tested on: HSV-1 (strain F, VR-733); design: method as in PMID 20466277; settings: inhibition of virus-induced cytopathic effect by 50%, ref [11]; cited from earlier work
[9] = tested on: VZV (Ellen, VR-1367); design: method as in PMID 20466277; settings: inhibition of virus-induced cytopathic effect by 50%; strain Ellen; ref [11]; cited from earlier work
[10] = tested on: HSV-2 (strain MS, VR-540); design: method as in PMID 20466277; settings: inhibition of virus-induced cytopathic effect by 50%, ref [11]; cited from earlier work

| SMILES | EC50 [1] [µM] | EC50 [2] [µM] | EC50 [3] [µM] | EC50 [4] [µM] | CC50 at 3 days ([5]; HEL299 (CCL-137) cells, mock-infected) [µM] | melting point [°C] | CC50 at 3 days ([5]; HEL299 cells) [µM] | EC50 [6] [µM] | CC50 [7] [µM] | EC50 [8] [µM] | EC50 [9] [µM] | EC50 [10] [µM] |
| --- | --- | --- | --- | --- | --- | --- | --- | --- | --- | --- | --- | --- |
| Nc1nc2c(ncn2COCCO)c(=O)[nH]1 [Compound 1, acyclovir, reference compound] | 1.02 | 6.4 | 18.9 | 0.66 | – | – | – | – | – | – | – | – |
| Nc1nc(O)c2ncn(COC(CO)CO)c2n1 [Compound 2, ganciclovir, reference compound] | 1.4 | 11.1 | 2.14 | 0.9 | > 100 | – | – | – | – | – | – | – |
| O=c1[nH]cnc2c1ncn2C[Se]CCO [Compound 3a, 9-((2-Hydroxyethylselanyl)methyl)-1H-purin-6-(9H)-one] | > 100 | > 100 | > 100 | > 100 | – | 225 to 227 | > 100 | – | – | – | – | – |
| CNc1ncnc2c1ncn2C[Se]CCO [Compound 3b, 2-((6-(Methylamino)-9H-purin-9-yl)methylselanyl) ethanol] | > 100 | > 100 | > 100 | > 100 | – | 171 to 173 | > 100 | – | – | – | – | – |
| Nc1ncnc2c1ncn2C[Se]CCO [Compound 3c, 2-((6-Amino-9H-purin-9-yl)methylselanyl)ethanol] | > 100 | > 100 | > 100 | > 100 | – | 175 to 177 | > 100 | – | – | – | – | – |
| O=c1[nH]cnc2c1ncn2C[Se]C(CO)CO [Compound 3d, 9-((1,3-Dihydroxypropan-2-ylselanyl)methyl)-1H purin-6(9H)-one] | > 100 | > 100 | > 100 | > 100 | – | – | > 100 | – | – | – | – | – |
| CNc1ncnc2c1ncn2C[Se]C(CO)CO [Compound 3e, 2-((6-(Methylamino)-9H-purin-9-yl)methylselanyl)propane-1,3-diol] | > 100 | > 100 | > 100 | > 100 | – | 180 to 183 | > 100 | – | – | – | – | – |
| Nc1ncnc2c1ncn2C[Se]C(CO)CO [Compound 3f, 2-((6-Amino-9H-purin-9-yl)methylselanyl)propane-1,3-diol] | > 100 | > 100 | 65.2 | > 100 | – | 186 to 188 | > 100 | – | – | – | – | – |
| Nc1nc2c(ncn2C[Se]CCO)c(=O)[nH]1 [Compound 4a, 9-((2-Hydroxyethylselanyl)methyl)-2-amino-1H purin-6(9H)-one] | – | – | – | – | – | – | – | > 100 | > 100 | 1.47 | > 100 | 6.34 |
| CNc1nc(N)nc2c1ncn2C[Se]CCO [Compound 4b, 2-((2-Amino-6-(methylamino)-9H-purin-9-yl)methylselanyl) ethanol] | 17.6 | > 100 | > 100 | 14.3 | – | 183 to 185 | > 100 | – | – | – | – | – |
| Nc1nc(N)c2ncn(C[Se]CCO)c2n1 [Compound 4c, 2-((2,6-Diamino-9H-purin-9-yl)methylselanyl) ethanol] | 23.2 | > 100 | > 100 | 15.4 | – | 84 to 86 | > 100 | – | – | – | – | – |
| Nc1nc2c(ncn2C[Se]C(CO)CO)c(=O)[nH]1 [Compound 4d, 9-((1,3-Dihydroxypropan-2-ylselanyl)methyl)-2-amino-1H-purin-6(9H)-one] | – | – | – | – | – | – | – | 53.1 | > 100 | > 100 | > 100 | > 100 |
| CNc1nc(N)nc2c1ncn2C[Se]C(CO)CO [Compound 4e, 2-((2-Amino-6-(methylamio)-9H-purin-9-yl)methylselanyl) propane-1,3-diol] | > 100 | > 100 | 32.1 | > 100 | – | 140 to 143 | > 100 | – | – | – | – | – |
| Nc1nc(N)c2ncn(C[Se]C(CO)CO)c2n1 [Compound 4f, 2-((2,6-Diamino-9H-purin-9-yl)methylselanyl)propane-1,3-diol] | > 100 | > 100 | 34.3 | > 100 | – | 193 to 196 | > 100 | – | – | – | – | – |
| Nc1nc(NC2CC2)c2ncn(C[Se]C(CO)CO)c2n1 [Compound 4g, 2-((2-Amino-6-(cyclopropylamino)-9H-purin-9-yl)methylselanyl)propane-1,3-diol] | > 100 | > 100 | 41.1 | > 100 | – | – | > 100 | – | – | – | – | – |
